From US11124818B2 (priority 2017, dated 2021)
Starred links: 1 amine or outer side, 2 acyl side, 3 side chain; linkers in the order of their positions; H or OH if unused. Positions of bridges follow the written chain, without caps; N, C: chain ends. Non-standard residues stand in square brackets, D forms with d. Residues, ends and D or L forms follow the SMILES beside them. *: point of attachment. Adda = CO[C@@H](Cc1ccccc1)[C@@H](C)/C=C(C)/C=C/[C@H](N[*:1])[C@H](C)C(=O)[*:2]; dAsp(3S-Me) = C[C@H](C(=O)[*:3])[C@@H](N[*:1])C(=O)[*:2]; Dolaproine = CO[C@@H]([C@@H]1CCCN1)[C@@H](C)C(=O)O; Dil = CC[C@H](C)[C@H](NC)[C@@H](CC(=O)O)OC; d(γGlu) = O=C(O)[C@@H](CCC(=O)[*:2])N[*:1]; X2 = C[C@@H](N*)[C@@H](O)c1ccccc1; NMeV = CN[C@H](C(=O)O)C(C)C; NMeDha = C=C(NC)C(=O)O

Legend:
[1] = system: human tumor cell lines; conditions: cited from earlier work
[2] = system: OATP1B1-expressing HeLa and RKO cells; conditions: cited from earlier work
[3] = system: OATP1B1-expressing HeLa and RKO cells; type: cell-based
[4] = system: OATP1B3-expressing HeLa and RKO cells; conditions: cited from earlier work
[5] = system: type 1 protein phosphatases; conditions: cited from earlier work

Structure (SMILES)	cytotoxic potency [1] [nM]	IC50 [2] [nM]	Ratio 1B1 to 1B3 [3]	IC50 [4] [nM]	IC50 [5] [nM]
CC[C@H](C)[C@@H]([C@@H](CC(=O)N1CCC[C@H]1[C@H](OC)[C@@H](C)C(=O)N[C@H](C)[C@@H](O)c1ccccc1)OC)N(C)C(=O)[C@@H](NC(=O)[C@@H](NC)C(C)C)C(C)C [Monomethyl auristatin E] (H-[NMeV]V[Dil][Dolaproine]-X2)	3.9 to 10.3	–	–	–	–
C/C=C1/C(=O)N[C@@H](C(=O)O)[C@H](C)C(=O)N[C@@H](CCCNC(=N)N)C(=O)N[C@@H](/C=C/C(C)=C/[C@H](C)[C@H](Cc2ccccc2)OC)[C@H](C)C(=O)N[C@@H](C(=O)O)CCC(=O)N1C [NOD, Nodularin]	–	8.4	<0.1	> 100	–
C=C1C(=O)N[C@H](C)C(=O)N[C@@H](CC(C)C)C(=O)N[C@@H](C(=O)O)[C@H](C)C(=O)N[C@@H](CCCNC(=N)N)C(=O)N[C@@H](/C=C/C(C)=C/[C@H](C)[C@H](Cc2ccccc2)OC)[C@H](C)C(=O)N[C@@H](C(=O)O)CCC(=O)N1C [LR, microcystin-LR] (R[Adda][d(γGlu)][NMeDha][dA]L[dAsp(3S-Me)]-OH; lactam N-7)	–	1	0.2	5.1	0.03
